Where two headings read alike, the source gives them in different places.
Molecular target: T1, CaV2.2 (Homo sapiens, UniProt Q00975)
T1 construct: expressed in transfected cells; host or cells: HEK293
Assay: VIPR optical membrane potential assay with electrical stimulation
Type: cell-based
Protocol: Antagonist properties of test compounds were assessed as follows. Cells expressing the CaV of interest were placed into microtiter plates. After an incubation period, the cells were stained with fluorescent dyes sensitive to the transmembrane potential. The test compounds were added to the microtiter plate. The cells were stimulated with electrical means to evoke a CaV dependent membrane potential change from unblocked channels, which was detected and measured with trans-membrane potential-sensitive dyes. Antagonists were detected as a decreased membrane potential response to the stimulus.
VIPR® Optical Membrane Potential Assay Method with Electrical Stimulation
The following is an example of how CaV2.2 inhibition activity is measured using the optical membrane potential method. Other subtypes are performed in an analogous mode in a cell line expressing the CaV of interest.
HEK293 cells stably expressing CaV2.2 are plated into 96-well microtiter plates. After an appropriate incubation period, the cells are stained with the voltage sensitive dyes CC2-DMPE/DiSBAC2(3) as follows.
2×CC2-DMPE=20 μM CC2-DMPE: 10 mM CC2-DMPE is vortexed with an equivalent volume of 10% Pluronic, followed by vortexing in required amount of HBSS containing 10 mM HEPES. Each cell plate will require 5 mL of 2×CC2-DMPE. 50 μL of 2×CC2-DMPE is added to wells containing washed cells, resulting in a 10 μM final staining concentration. The cells are stained for 30 minutes in the dark at RT.
Vortex in required amount of Bath X with beta-cyclodextrin. Each 96 well cell plate will require 5 ml of 2×CC2DMPE. Wash plate with ELx405 with Bath X, leaving a residual volume of 50 μL/well. Add 50 μL of 2×CC2DMPE & DISBAC6(3) to each well. Stain for 30 minutes in the dark at RT.
Allow solution to sit for 10 minutes. Slowly mix in 370 mM BaCl2. This solution can be used to solvate compound plates. Note that compound plates are made at 1.5× drug concentration and not the usual 2×. Wash CC2 stained plate, again, leaving residual volume of 50 pt. Add 100 uL/well of the AY17 solution. Stain for 15 minutes in the dark at RT. Run plate on the optical reader.
The instrument comprises a microtiter plate handler, an optical system for exciting the coumarin dye while simultaneously recording the coumarin and oxonol emissions, a waveform generator, a current- or voltage-controlled amplifier, and a device for inserting electrodes in well. Under integrated computer control, this instrument passes user-programmed electrical stimulus protocols to cells within the wells of the microtiter plate.
Insert or use electrodes into each well to be assayed.
Use the current-controlled amplifier to deliver stimulation wave pulses for 3-5 s. Two seconds of pre-stimulus recording are performed to obtain the un-stimulated intensities. Five seconds of post-stimulation recording are performed to examine the relaxation to the resting state.
Data are analyzed and reported as normalized ratios of background-subtracted emission intensities measured in the 460 nm and 580 nm channels. Background intensities are then subtracted from each assay channel. Background intensities are obtained by measuring the emission intensities during the same time periods from identically treated assay wells in which there are no cells. The response as a function of time is then reported as the ratios obtained using the following formula: […]
The data is further reduced by calculating the initial (Ri) and final (Rf) ratios. These are the average ratio values during part or all of the pre-stimulation period, and during sample points during the stimulation period. The response to the stimulus R=Rf/Ri is then calculated.
Control responses are obtained by performing assays in the presence of a compound with the desired properties (positive control), such as mibefradil, and in the absence of pharmacological agents (negative control). Responses to the negative (N) and positive (P) controls are calculated as above.

[1] = Table 3, biological assay data, read-out: IC50

T1 sequence (Q00975 whole entry): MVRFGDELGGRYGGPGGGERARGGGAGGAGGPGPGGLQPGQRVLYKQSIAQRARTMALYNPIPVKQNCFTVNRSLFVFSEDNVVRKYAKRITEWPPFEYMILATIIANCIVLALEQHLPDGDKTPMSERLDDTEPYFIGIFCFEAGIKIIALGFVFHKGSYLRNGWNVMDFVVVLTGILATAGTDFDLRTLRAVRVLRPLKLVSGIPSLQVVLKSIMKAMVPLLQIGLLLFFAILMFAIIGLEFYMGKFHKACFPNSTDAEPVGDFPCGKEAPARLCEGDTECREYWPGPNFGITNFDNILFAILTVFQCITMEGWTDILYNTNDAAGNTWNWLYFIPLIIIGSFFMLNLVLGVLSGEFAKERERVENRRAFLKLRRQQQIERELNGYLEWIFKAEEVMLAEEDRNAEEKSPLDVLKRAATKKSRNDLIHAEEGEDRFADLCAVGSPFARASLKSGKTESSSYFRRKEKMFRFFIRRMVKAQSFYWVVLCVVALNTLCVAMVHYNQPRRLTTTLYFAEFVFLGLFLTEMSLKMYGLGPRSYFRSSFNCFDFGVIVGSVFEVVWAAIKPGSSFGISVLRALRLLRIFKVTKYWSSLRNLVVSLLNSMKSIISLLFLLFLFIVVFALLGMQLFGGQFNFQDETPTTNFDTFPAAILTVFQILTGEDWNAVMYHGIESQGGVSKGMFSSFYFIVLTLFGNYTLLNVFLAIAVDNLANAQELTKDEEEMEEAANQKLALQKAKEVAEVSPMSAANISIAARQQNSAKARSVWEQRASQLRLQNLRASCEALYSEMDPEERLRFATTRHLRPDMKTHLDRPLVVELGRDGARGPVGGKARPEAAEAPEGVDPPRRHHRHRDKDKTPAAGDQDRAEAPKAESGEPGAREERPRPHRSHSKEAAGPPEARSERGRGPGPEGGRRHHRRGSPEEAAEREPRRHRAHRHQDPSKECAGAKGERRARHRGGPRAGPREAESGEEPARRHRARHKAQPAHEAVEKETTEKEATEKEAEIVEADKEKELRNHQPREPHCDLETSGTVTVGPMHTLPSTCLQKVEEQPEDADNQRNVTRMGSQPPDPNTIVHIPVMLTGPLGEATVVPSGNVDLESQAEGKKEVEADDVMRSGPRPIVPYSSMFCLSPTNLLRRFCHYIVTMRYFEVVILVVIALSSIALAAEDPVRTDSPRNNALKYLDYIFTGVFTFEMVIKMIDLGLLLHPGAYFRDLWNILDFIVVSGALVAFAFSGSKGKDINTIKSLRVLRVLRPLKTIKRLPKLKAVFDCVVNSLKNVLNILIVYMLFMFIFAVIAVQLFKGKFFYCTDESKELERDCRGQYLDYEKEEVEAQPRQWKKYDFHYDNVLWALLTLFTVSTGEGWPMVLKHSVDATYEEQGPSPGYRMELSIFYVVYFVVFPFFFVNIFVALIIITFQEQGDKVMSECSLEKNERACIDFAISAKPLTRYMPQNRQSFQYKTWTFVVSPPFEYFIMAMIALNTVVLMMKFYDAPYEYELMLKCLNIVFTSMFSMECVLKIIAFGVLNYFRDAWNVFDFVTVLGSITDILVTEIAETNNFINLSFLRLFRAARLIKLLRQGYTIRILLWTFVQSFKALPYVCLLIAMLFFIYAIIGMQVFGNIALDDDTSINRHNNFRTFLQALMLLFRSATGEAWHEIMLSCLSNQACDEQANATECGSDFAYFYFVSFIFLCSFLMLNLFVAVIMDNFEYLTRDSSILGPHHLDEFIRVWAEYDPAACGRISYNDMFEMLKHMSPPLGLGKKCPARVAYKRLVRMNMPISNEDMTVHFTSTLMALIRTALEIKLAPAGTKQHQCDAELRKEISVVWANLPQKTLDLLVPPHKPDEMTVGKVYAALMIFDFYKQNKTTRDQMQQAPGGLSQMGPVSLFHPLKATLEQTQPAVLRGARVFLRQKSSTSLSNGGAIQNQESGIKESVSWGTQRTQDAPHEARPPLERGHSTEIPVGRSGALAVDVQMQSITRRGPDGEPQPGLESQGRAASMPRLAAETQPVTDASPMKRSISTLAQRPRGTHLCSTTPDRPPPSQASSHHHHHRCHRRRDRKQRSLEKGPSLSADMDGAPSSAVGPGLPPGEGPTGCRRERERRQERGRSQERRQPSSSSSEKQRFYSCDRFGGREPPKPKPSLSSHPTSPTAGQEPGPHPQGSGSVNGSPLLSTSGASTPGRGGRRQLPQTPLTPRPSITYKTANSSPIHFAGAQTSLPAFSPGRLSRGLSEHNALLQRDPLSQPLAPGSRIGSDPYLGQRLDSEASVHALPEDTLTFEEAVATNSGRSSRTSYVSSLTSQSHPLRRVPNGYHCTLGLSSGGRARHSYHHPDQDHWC
T1 sequence (P54284 whole entry partner): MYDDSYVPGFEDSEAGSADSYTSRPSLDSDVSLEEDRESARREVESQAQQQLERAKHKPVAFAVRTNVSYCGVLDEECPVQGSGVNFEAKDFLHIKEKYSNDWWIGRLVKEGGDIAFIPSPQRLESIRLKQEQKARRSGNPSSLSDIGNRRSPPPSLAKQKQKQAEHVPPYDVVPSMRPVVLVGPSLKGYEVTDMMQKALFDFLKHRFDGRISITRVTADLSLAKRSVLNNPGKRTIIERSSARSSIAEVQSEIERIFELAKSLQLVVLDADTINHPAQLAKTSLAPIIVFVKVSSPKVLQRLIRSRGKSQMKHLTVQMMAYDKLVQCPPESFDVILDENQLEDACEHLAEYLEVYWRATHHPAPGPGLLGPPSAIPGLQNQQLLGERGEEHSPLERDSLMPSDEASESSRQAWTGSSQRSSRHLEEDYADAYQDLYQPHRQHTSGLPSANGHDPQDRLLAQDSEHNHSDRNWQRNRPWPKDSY
T1 sequence (P54289 25-946 partner limits assumed): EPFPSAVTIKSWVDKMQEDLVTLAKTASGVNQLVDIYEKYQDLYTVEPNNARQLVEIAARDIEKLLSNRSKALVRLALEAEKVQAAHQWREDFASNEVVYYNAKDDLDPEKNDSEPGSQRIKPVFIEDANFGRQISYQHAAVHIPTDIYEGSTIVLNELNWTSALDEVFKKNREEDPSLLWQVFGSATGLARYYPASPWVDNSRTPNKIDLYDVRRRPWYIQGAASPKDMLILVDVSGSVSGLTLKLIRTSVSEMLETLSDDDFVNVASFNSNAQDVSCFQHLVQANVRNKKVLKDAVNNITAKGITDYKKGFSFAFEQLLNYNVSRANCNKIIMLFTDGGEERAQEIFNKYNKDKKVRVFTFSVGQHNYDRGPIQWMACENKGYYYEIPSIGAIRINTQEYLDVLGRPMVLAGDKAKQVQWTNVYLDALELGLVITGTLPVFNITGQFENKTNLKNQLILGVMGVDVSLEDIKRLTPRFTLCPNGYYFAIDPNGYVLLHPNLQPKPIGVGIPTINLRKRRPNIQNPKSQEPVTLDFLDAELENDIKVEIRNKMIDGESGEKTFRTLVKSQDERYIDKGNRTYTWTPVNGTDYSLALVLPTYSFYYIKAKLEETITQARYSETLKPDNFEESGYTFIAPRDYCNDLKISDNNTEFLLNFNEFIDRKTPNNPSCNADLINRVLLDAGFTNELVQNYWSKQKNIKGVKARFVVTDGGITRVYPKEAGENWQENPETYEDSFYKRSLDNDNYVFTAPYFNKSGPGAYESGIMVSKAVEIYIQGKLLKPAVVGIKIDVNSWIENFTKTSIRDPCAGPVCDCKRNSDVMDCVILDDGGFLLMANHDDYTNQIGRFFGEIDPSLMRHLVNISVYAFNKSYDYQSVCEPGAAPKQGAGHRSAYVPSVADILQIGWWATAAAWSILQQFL
T1 sequence (P54289 947-1103 partner limits assumed): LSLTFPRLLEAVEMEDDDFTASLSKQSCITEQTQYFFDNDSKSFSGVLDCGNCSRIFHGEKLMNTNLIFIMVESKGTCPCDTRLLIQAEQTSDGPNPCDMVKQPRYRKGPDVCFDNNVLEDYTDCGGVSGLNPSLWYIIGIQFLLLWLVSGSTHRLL

Compound | IC50 [1] [µM] | IC50 [µM]
CCN(CC)C(=O)c1cc2cc(S(=O)(=O)N3CCCCCC3)ccc2o1 [compound 1] | 5 to 20 | –
CC1CC(C)CN(S(=O)(=O)c2ccc3oc(C(=O)NCCc4ccccc4)cc3c2)C1 (stereo not drawn) [compound 2] | < 5 | –
Cc1c(C(=O)N2CCN(C)CC2)[nH]c2ccc(S(=O)(=O)N3CCCCCC3)cc12 [compound 3] | < 20 | –
Cc1c(C(=O)N2CCC(C)CC2)oc2ccc(S(=O)(=O)N3CCC4(CC3)OCCO4)cc12 [compound 4] | 5 to 20 | –
O=C(NCCCc1ccccc1)c1cc2cc(S(=O)(=O)N3CCCCCC3)ccc2[nH]1 [compound 5] | < 5 | –
Cc1c(C(=O)NCCC2CCOCC2)oc2ccc(S(=O)(=O)N3CC(C)CC(C)C3)cc12 (stereo not drawn) [compound 6] | < 5 | –
CCN(CC)C(=O)c1[nH]c2ccc(S(=O)(=O)N3CC(C)CC(C)C3)cc2c1C (stereo not drawn) [compound 7] | < 5 | –
CC1CCN(S(=O)(=O)c2ccc3[nH]c(C(=O)NCCC4CCOCC4)cc3c2)CC1 [compound 8] | < 5 | –
Cc1c(C(=O)NC2CCCCC2)oc2ccc(S(=O)(=O)N3CCCC(C)C3)cc12 (stereo not drawn) [compound 9] | < 5 | –
CNC(=O)c1oc2ccc(S(=O)(=O)N3CCC(C)CC3)cc2c1C [compound 10] | 5 to 20 | –
CC1CCN(S(=O)(=O)c2ccc3[nH]c(CN4CCCCC4)cc3c2)CC1 [compound 11] | < 5 | –
Cc1c(C(=O)N2CCCC2)oc2ccc(S(=O)(=O)N3CCC(C)CC3)cc12 [compound 12] | 5 to 20 | –
Cc1c(C(=O)NCCc2ccccc2)[nH]c2ccc(S(=O)(=O)N3CC(C)CC(C)C3)cc12 (stereo not drawn) [compound 13] | < 5 | –
Cc1c(C(=O)N2CCCCC2C)oc2ccc(S(=O)(=O)N3CCOCC3)cc12 (stereo not drawn) [compound 14] | < 20 | –
CCN(CC)C(=O)c1oc2ccc(S(=O)(=O)N3CCC(C)CC3)cc2c1C [compound 15] | 5 to 20 | –
CC1CC(C)CN(S(=O)(=O)c2ccc3[nH]c(C(=O)NCC4CCCO4)cc3c2)C1 (stereo not drawn) [compound 16] | < 5 | –
CC1CC(C)CN(C(=O)c2cc3cc(S(=O)(=O)N4CCCCCC4)ccc3[nH]2)C1 (stereo not drawn) [compound 17] | 5 to 20 | –
Cc1c(C(=O)N2CCCC2)oc2ccc(S(=O)(=O)N3CCCCC3)cc12 [compound 18] | 5 to 20 | –
CCOC(=O)C1CCN(C(=O)c2oc3ccc(S(=O)(=O)N4CCCCCC4)cc3c2C)CC1 [compound 19] | < 5 | –
Cc1c(C(=O)NC2CC2)oc2ccc(S(=O)(=O)Nc3ncccn3)cc12 [compound 20] | < 20 | –

Compound | IC50 [1] [µM] | IC50 [µM]
Cc1c(C(=O)NC(C)C)oc2ccc(S(=O)(=O)N3CC(C)CC(C)C3)cc12 (stereo not drawn) [compound 21] | < 5 | –
CNC(=O)c1oc2ccc(S(=O)(=O)N3CCOCC3)cc2c1C [compound 22] | < 20 | –
O=C(NCCC1CCOCC1)c1cc2cc(S(=O)(=O)N3CCCCCC3)ccc2o1 [compound 23] | < 5 | –
Cc1c(C(=O)NC2CC2)oc2ccc(S(=O)(=O)N(CCN(C)C)Cc3ccccc3)cc12 [compound 24] | < 20 | –
Cc1c(C(=O)NC2CC2)oc2ccc(S(=O)(=O)NCCN3CCCCC3)cc12 [compound 25] | < 20 | –
Cc1c(C(=O)N2CCCC2)oc2ccc(S(=O)(=O)N3CCOCC3)cc12 [compound 26] | < 20 | –
Cc1c(C(=O)NCCC2CCOCC2)[nH]c2ccc(S(=O)(=O)N3CCC(C)CC3)cc12 [compound 27] | 5 to 20 | –
Cc1c(C(=O)NC(C)c2ccccc2)oc2ccc(S(=O)(=O)N3CCCC3)cc12 (stereo not drawn) [compound 28] | < 20 | –
CC1CC(C)CN(C(=O)c2cc3cc(S(=O)(=O)N4CC(C)CC(C)C4)ccc3o2)C1 (stereo not drawn) [compound 29] | < 5 | –
CNC(=O)c1[nH]c2ccc(S(=O)(=O)N3CCC(C)CC3)cc2c1C [compound 30] | 5 to 20 | –
CCN(CC)C(=O)c1cc2cc(S(=O)(=O)N3CC(C)CC(C)C3)ccc2o1 (stereo not drawn) [compound 31] | < 5 | –
Cc1c(C(=O)NCC2CCCO2)oc2ccc(S(=O)(=O)N3CC(C)CC(C)C3)cc12 (stereo not drawn) [compound 32] | < 5 | –
Cc1c(C(=O)N2CC(C)CC(C)C2)oc2ccc(S(=O)(=O)N3CCC(C)CC3)cc12 (stereo not drawn) [compound 33] | 5 to 20 | –
O=C(NCc1ccccc1)c1cc2cc(S(=O)(=O)N3CCCCCC3)ccc2o1 [compound 34] | < 5 | –
Cc1c(C(=O)NC2CC2)oc2ccc(S(=O)(=O)N3CCC(F)(F)CC3)cc12 [compound 35] | 5 to 20 | –
CC1CCN(S(=O)(=O)c2ccc3[nH]c(C(=O)NCc4ccccc4)cc3c2)CC1 [compound 36] | < 5 | –
CNC(=O)c1cc2cc(S(=O)(=O)N3CC(C)CC(C)C3)ccc2[nH]1 (stereo not drawn) [compound 37] | < 5 | –
Cc1c(C(=O)NCC2CCOCC2)oc2ccc(S(=O)(=O)N3CCCCCC3)cc12 [compound 38] | 5 to 20 | –
Cc1c(C(=O)NC2CCC(C)CC2)oc2ccc(S(=O)(=O)N3CCOCC3)cc12 (stereo not drawn) [compound 39] | < 20 | –
O=C(NCCCc1ccccc1)c1cc2cc(S(=O)(=O)N3CCCCCC3)ccc2o1 [compound 40] | < 5 | –

Compound | IC50 [1] [µM] | IC50 [µM]
O=C(NC1CCCC1)c1cc2cc(S(=O)(=O)N3CCCCCC3)ccc2[nH]1 [compound 41] | 5 to 20 | –
Cc1c(C(=O)N2CCCCC2C)oc2ccc(S(=O)(=O)N3CCC(C)CC3)cc12 (stereo not drawn) [compound 42] | < 5 | –
CN(Cc1ccccc1)C(=O)c1cc2cc(S(=O)(=O)N3CCCCCC3)ccc2o1 [compound 43] | < 5 | –
Cc1c(C(=O)NCc2ccccc2)oc2ccc(S(=O)(=O)N3CCCCCC3)cc12 [compound 44] | 5 to 20 | –
Cc1c(C(=O)N2CCCCCC2)oc2ccc(S(=O)(=O)N3CCCCCC3)cc12 [compound 45] | < 5 | –
CCN(CC)C(=O)c1cc2cc(S(=O)(=O)N3CCCCCC3)ccc2[nH]1 [compound 46] | < 5 | –
Cc1c(C(=O)NC(C)C)oc2ccc(S(=O)(=O)N3CCCC(C)C3)cc12 (stereo not drawn) [compound 47] | 5 to 20 | –
O=C(NCCc1ccccc1)c1cc2cc(S(=O)(=O)N3CCCCCC3)ccc2o1 [compound 48] | < 5 | –
Cc1c(C(=O)NCCCc2ccccc2)[nH]c2ccc(S(=O)(=O)N3CC(C)CC(C)C3)cc12 (stereo not drawn) [compound 49] | < 5 | –
Cc1c(C(=O)NC2CC2)oc2ccc(S(=O)(=O)Nc3ccccn3)cc12 [compound 50] | < 20 | –
CCN(CC)S(=O)(=O)c1ccc2oc(C(=O)NC)c(C)c2c1 [compound 51] | < 20 | –
CC(C)N(C(=O)c1cc2cc(S(=O)(=O)N3CCCCCC3)ccc2[nH]1)C(C)C [compound 52] | 5 to 20 | –
CC1CC(C)CN(S(=O)(=O)c2ccc3oc(C(=O)NCCCc4ccccc4)cc3c2)C1 (stereo not drawn) [compound 53] | < 5 | –
CC1CCN(S(=O)(=O)c2ccc3[nH]c(C(=O)N4CCC5(CC4)OCCO5)cc3c2)CC1 [compound 54] | – | 5 to 20
CC1CCCN(C(=O)c2cc3cc(S(=O)(=O)N4CCCCCC4)ccc3[nH]2)C1 (stereo not drawn) [compound 55] | < 5 | –
Cc1c(C(=O)NCCCc2ccccc2)oc2ccc(S(=O)(=O)N3CC(C)CC(C)C3)cc12 (stereo not drawn) [compound 56] | < 5 | –
Cc1c(C(=O)NC(C)C2=CCCCC2)oc2ccc(S(=O)(=O)N3CCCCC3)cc12 (stereo not drawn) [compound 57] | 5 to 20 | –
Cc1c(C(=O)N2CCCC(C)C2)oc2ccc(S(=O)(=O)N3CCC(C)CC3)cc12 (stereo not drawn) [compound 58] | 5 to 20 | –
Cc1c(C(=O)N2CCCCC2C)oc2ccc(S(=O)(=O)N3CCCCC3)cc12 (stereo not drawn) [compound 59] | 5 to 20 | –
Cc1c(C(=O)N2CC(C)CC(C)C2)[nH]c2ccc(S(=O)(=O)N3CC(C)CC(C)C3)cc12 (stereo not drawn) [compound 60] | < 5 | –
